According to patent publication US12053459B2, “CDK2 inhibitors and methods of using the same” (Cedilla Therapeutics, Inc., priority 2021, dated 2024):

Key:
CDK2/Cyclin E1(14-475) = CDK2/Cyclin E1(14-475) (Homo sapiens, UniProt P24941); assay: Caliper LabChip EZ Reader mobility shift assay, inhibition of CDK2/Cyclin E1 activity; assay type: biochemical; conditions: class symbols A-D
Protocol: Inhibition of CDK2/Cyclin E1 activity in the presence of compounds of the present disclosure was evaluated using a Caliper LabChip® EZ Reader mobility shift assay. In the assay, activated CDK2/Cyclin E1 catalyzes the phosphorylation of a fluorescently tagged peptide 5-FAM-QSPKKG-CONH2 (PerkinElmer, FL Peptide 18) which induces a difference in capillary electrophoresis mobility. The peptide substrate and product were measured, and the conversion ratio was used to determine the inhibition (as % activity and IC50 values) of CDK2/Cyclin E1. Reactions contained 50 mM HEPES pH 7.5, 10 mM MgCl2, 1 mM EDTA, 2 mM DTT, 0.01% Brij35, 0.5 mg/mL BSA, 0.1% DMSO, 2.5 nM CDK2/Cyclin E1(14-475), 100 μM ATP, and 1.5 μM fluorescent peptide substrate.
Dose titrations of inhibitors in 100% DMSO were combined with 3.25 nM CDK2/Cyclin E1(14-475) and 130 μM of ATP in reaction buffer. The mixtures were incubated for 30 minutes before the addition of fluorescent peptide substrate to initiate the kinase reaction. The final conditions were 2.5 nM CDK2/Cyclin E1(14-475), 100 μM ATP, and 1.5 μM fluorescent peptide. The reactions were stopped after 100 minutes with the addition of EDTA (6 mM final EDTA concentration). The stopped reactions were analyzed on a Caliper LabChip® EZ Reader II. The conversion ratios were normalized to yield % activity, plotted against compound concentration, and fit to a four-parameter equation to determine the IC50 for each compound.

Kuramochi cells = assay: BrdU cell proliferation assay (colorimetric ELISA), Kuramochi cells; assay type: cell-based; conditions: class symbols A-D
Protocol: A BrdU assay was used as a measure of proliferation based on the DNA replication process of proliferating cells. BrdU, a pyrimidine analog, is added to the cell culture and incorporated into the DNA of proliferating cells. The presence of the BrdU analog was then measured through a colorimetric ELISA. After fixation and permeabilization of cells, peroxidase-conjugated antibody recognizing BrdU is added and allowed to incubate, followed by thorough washing to remove unbound antibody. In order to quantify the amount of bound antibody, peroxidase substrate is added and produces a color that can be measured at 450 nm.
On day −1, Kuramochi cells (Sekisui XenoTech JCRB0098) were seeded at 2,000 cells/well in columns 2-12 of a 96 well plate (Corning, CLS3596) in 150 uL media and allowed to adhere overnight at 37 degree with 5% CO2. In order to assess specificity of the compounds, Kuramochi RB^KO cells were also plated and treated, as RB^KO cells were not expected to show a proliferative response to CCNE/CDK specific inhibitors.
On day 0, the source plate was prepared by adding 10 mM compounds and performing 3-fold serial dilutions for a 4-point dose response of each compound. Using a multichannel pipette, 2 uL of the contents of the source plate were stamped into an intermediate plate with 500 uL of RPMI 1640 Media, GlutaMAX Supplement (Life Technologies, 61870127) in each well of a Nunc 96 DeepWell™ plate, non-treated 96 DeepWell plate, 2 mL/well, sterile, natural, 60/cs (Sigma Z717274) and mixed thoroughly. 50 uL from row A of this intermediate plate were added to rows A-H of one plate of previously seeded Kuramochi cells, and each subsequent row of the intermediate plate was added to a full plate of cells.
On day 4, the plates were developed using the BrdU ELISA Cell Proliferation Assay according to manufacturer's instructions (Roche, 11647229001). Briefly, BrdU was diluted 1:100 in Gibco®, Opti-MEM® and 20 μL/well was added, shaken for 10 minutes at 350 rpm, and then returned to the incubator for 1 hour. Following incubation, the medium was discarded, and the cells were fixed by adding 200 μL of Fix/Denature solution. The anti-BrdU peroxidase antibody was diluted 1:1000 in OptiMEM, added at 100 μL/well, and incubated while shaking (350 rpm) for one hour. Three washes with PBS were performed to remove any unbound antibody, followed by the addition of 100 μL of substrate solution to each well. […] was then added to halt the reaction, and plates were read out using an Envision spectrophotometer (Perkin Elmer) set to read 450 nm absorbance. Background absorbance values from empty wells were subtracted from all samples and then normalized to DMSO treated wells.

| Structure (SMILES) | IC50 (CDK2/Cyclin E1(14-475)) | IC50 (Kuramochi cells) |
| --- | --- | --- |
| CNC(=O)[C@H](CCCC1CCOCC1)NC(=O)C1CN(C(=O)Cc2c[nH]c3cc(Cl)ccc23)CC2CN(C(=O)c3ccc(OC(C)C)c(OC)c3)CC21 (some centres unmarked) [I-130] | 0.5 to 5 µM | > 10 µM |
| CNC(=O)[C@H](CCCc1ccccc1)NC(=O)C1CN(C(=O)Cc2c[nH]c3cc(C)ccc23)CC2CN(C(=O)c3ccc(OC(C)C)c(OC)c3)CC21 (some centres unmarked) [I-231] | 5 to 10 µM | > 10 µM |
| C[C@H](OCc1ccc(F)cc1)[C@H](NC(=O)C1CN(C(=O)Cc2c[nH]c3cc(Cl)ccc23)CC2CN(C(=O)c3ccc(OC4CC4)cc3)CC21)C(N)=O (some centres unmarked) [I-243] | 0.5 to 5 µM | > 10 µM |
| CNC(=O)[C@H](CCCc1ccccc1)NC(=O)C1CN(C(=O)c2ccn(C)c2)CC2CN(C(=O)c3ccc(OC(C)C)c(OC)c3)CC21 (some centres unmarked) [I-215] | > 10 µM | > 10 µM |
| CNC(=O)[C@H](CCCc1ccccc1)NC(=O)C1CN(C(=O)c2ccc3ncccc3c2)CC2CN(C(=O)c3ccc(OC(C)C)c(OC)c3)CC21 (some centres unmarked) [I-158] | > 10 µM | > 10 µM |
| COc1cc(C(=O)N2CC3CN(C(=O)Cc4c[nH]c5cc(Cl)ccc45)CC(C(=O)N[C@@H](CCCc4cccc(O)c4)C(=O)NCCCCCN)C3C2)ccc1OC(C)C (single isomer, unassigned) [I-258] | > 10 µM | > 10 µM |
| COc1cc(C(=O)N2CC3CN(C(=O)Cc4c[nH]c5cc(Cl)ccc45)CC(C(=O)NC(CCCc4ccccc4)c4ncccn4)C3C2)ccc1OC(C)C (centres unmarked) [I-151] | ≤ 0.5 µM | 0.5 to 5 µM |
| COc1cc(C(=O)N2CC3CN(C(=O)Cc4c[nH]c5cc(Cl)ccc45)CC(C(=O)N[C@H](C(=O)NCCCCCNC(=O)OC(C)(C)C)C(C)OCc4ccccc4)C3C2)ccc1OC(C)C (single isomer, unassigned) [I-259] | ≤ 0.5 µM | 0.5 to 5 µM |
| CNC(=O)[C@H](CCCc1ccccc1)NC(=O)C1CN(C(=O)Cn2cnc3cc(Cl)ccc32)CC2CN(C(=O)c3ccc(OC(C)C)c(OC)c3)CC21 (some centres unmarked) [I-156] | 0.5 to 5 µM | > 10 µM |
| CCc1ccc(C(=O)N2CC3CN(C(=O)Cc4c[nH]c5cc(Cl)ccc45)CC(C(=O)N[C@@H](CCCc4ccccc4)C(=O)NC)C3C2)nc1 (some centres unmarked) [I-58] | > 10 µM | > 10 µM |
| CNC(=O)[C@H](CCCc1ccccc1)NC(=O)C1CN(C(=O)Cc2c[nH]c3cc(Cl)ccc23)CC2CN(C(=O)c3ccc(OC4CC4)cc3)CC21 (some centres unmarked) [I-6] | 0.5 to 5 µM | > 10 µM |
| CNC(=O)C(CCCC1CCCC1)NC(=O)C1CN(C(=O)Cc2c[nH]c3cc(Cl)ccc23)CC2CN(C(=O)c3ccc(OC(C)C)c(OC)c3)CC21 (centres unmarked) [I-93] | 0.5 to 5 µM | > 10 µM |
| CNC(=O)[C@H](CCCc1ccccc1)NC(=O)C1CN(C(=O)Cc2c[nH]c3cc(Cl)ccc23)CC2CN(C(=O)c3ccc(NC(=O)CC4CC4)c(OC)c3)CC21 (some centres unmarked) [I-69] | > 10 µM | > 10 µM |
| CNC(=O)[C@H](CCCc1ccccc1)NC(=O)C1CN(C(=O)Cc2c[nH]c3cc(Cl)ccc23)CC2CN(C(=O)c3ccc4c(c3)oc(=O)n4C)CC21 (some centres unmarked) [I-73] | > 10 µM | > 10 µM |
| CNC(=O)[C@H](CCCc1ccccc1)NC(=O)C1CN(C(=O)Cc2cccc3[nH]ccc23)CC2CN(C(=O)c3ccc(OC(C)C)c(OC)c3)CC21 (some centres unmarked) [I-178] | > 10 µM | > 10 µM |
| CNC(=O)[C@H](CCCc1ccccc1)NC(=O)C1CN(C(=O)C2CCOCC2)CC2CN(C(=O)c3ccc(OC(C)C)c(OC)c3)CC21 (some centres unmarked) [I-207] | > 10 µM | > 10 µM |
| CNC(=O)[C@H](CCCc1ccc(F)cc1)NC(=O)C1CN(C(=O)Cc2c[nH]c3cc(Cl)ccc23)CC2CN(C(=O)c3ccc(OC(C)C)c(OC)c3)CC21 (some centres unmarked) [I-144] | 0.5 to 5 µM | > 10 µM |
| CNC(=O)[C@H](CCCc1ccccc1)NC(=O)C1CN(C(=O)Cc2ccncc2)CC2CN(C(=O)c3ccc(OC(C)C)c(OC)c3)CC21 (some centres unmarked) [I-202] | > 10 µM | > 10 µM |

| Structure (SMILES) | IC50 (CDK2/Cyclin E1(14-475)) | IC50 (Kuramochi cells) |
| --- | --- | --- |
| CNC(=O)[C@H](CCCc1ccccc1)NC(=O)C1CN(C(=O)Cc2c[nH]c3cc(Cl)ccc23)CC2CN(C(=O)c3ccc(OCCC4CC4)c(OC)c3)CC21 (some centres unmarked) [I-9] | 5 to 10 µM | > 10 µM |
| CNC(=O)[C@H](CCCc1ccccc1)NC(=O)C1CN(C(=O)Cc2c[nH]c3cc(Cl)ccc23)CC2CN(C(=O)c3ccc4[nH]c(=O)oc4c3)CC21 (some centres unmarked) [I-72] | > 10 µM | > 10 µM |
| CNC(=O)[C@H](CCCc1ccccc1)NC(=O)C1CN(C(=O)Cc2c[nH]c3cc(Cl)ccc23)CC2CN(C(=O)c3ccc4ncccc4c3)CC21 (some centres unmarked) [I-36] | > 10 µM |  |
| CNC(=O)[C@@H](Cc1ccc(O)cc1)NC(=O)C1CN(C(=O)Cc2c[nH]c3cc(Cl)ccc23)CC2CN(C(=O)c3ccc(OC(C)C)c(OC)c3)CC21 (some centres unmarked) [I-121] |  | > 10 µM |
| CNC(=O)[C@H](CCCC(C)(C)C)NC(=O)C1CN(C(=O)Cc2c[nH]c3cc(Cl)ccc23)CC2CN(C(=O)c3ccc(OC(C)C)c(OC)c3)CC21 (some centres unmarked) [I-96] |  | > 10 µM |
| CNC(=O)[C@H](CCCc1ccccc1)NC(=O)C1CN(C(=O)Cc2cccnc2)CC2CN(C(=O)c3ccc(OC(C)C)c(OC)c3)CC21 (some centres unmarked) [I-224] | > 10 µM |  |
| CNC(=O)[C@@H](Cc1ccccc1)NC(=O)C1CN(C(=O)Cc2c[nH]c3cc(Cl)ccc23)CC2CN(C(=O)c3ccc(OC(C)C)c(OC)c3)CC21 (some centres unmarked) [I-120] |  | > 10 µM |
| CNC(=O)[C@H](CCCc1ccccc1)NC(=O)C1CN(C(=O)c2cn3ccncc3n2)CC2CN(C(=O)c3ccc(OC(C)C)c(OC)c3)CC21 (single isomer, unassigned) [I-194] |  | > 10 µM |
| CNC(=O)[C@H](CCCc1ccccc1)NC(=O)C1CN(C(=O)Cc2c[nH]c3cc(Cl)ccc23)CC2CN(C(=O)c3cccc(-c4cccnc4)c3)CC21 (some centres unmarked) [I-63] |  | > 10 µM |
| CNC(=O)[C@H](CCCc1ccccc1)NC(=O)C1CN(CCc2c[nH]c3cc(Cl)ccc23)CC2CN(C(=O)c3ccc(OC(C)C)c(OC)c3)CC21 (stereo partly drawn) [I-254, 5-(2-(6-chloro-1H-indol-3-yl)ethyl)-2-(4-isopropoxy-3-methoxybenzoyl)-N—((S)-1-(methylamino)-1-oxo-5-phenylpentan-2-yl)octahydro-1H-pyrrolo[3,4-c]pyridine-7-carboxamide] | > 10 µM |  |
| CNC(=O)[C@H](CCCc1ccccc1)NC(=O)C1CN(C(=O)Cc2c[nH]c3cc(Cl)ccc23)CC2CN(C(=O)C3CCCCC3)CC21 (some centres unmarked) [I-51] |  | > 10 µM |
| CNC(=O)[C@H](CCCc1ccccc1)NC(=O)C1CN(C(=O)Cc2c[nH]c3cc(Cl)ccc23)CC2CN(C(=O)c3cccc(OC)c3)CC21 (some centres unmarked) [I-49] |  | > 10 µM |
| CNC(=O)[C@H](CCCc1ccccc1)NC(=O)C1CN(C(=O)Cc2c[nH]c3cc(Cl)ccc23)CC2CN(C(=O)c3ncc(-c4ccccc4)s3)CC21 (some centres unmarked) [I-68] |  | > 10 µM |
| CNC(=O)[C@H](CCCc1ccccc1)NC(=O)C1CN(C(=O)Cc2c[nH]c3cc(Cl)ccc23)CC2CN(C(=O)c3ccc4c(c3)CCO4)CC21 (some centres unmarked) [I-53] |  | > 10 µM |
| CNC(=O)[C@H](CCCc1ccccc1)NC(=O)C1CN(C(=O)Cc2c[nH]c3cc(Cl)ccc23)CC2CN(C(=O)c3ccc4oc(=O)n(C)c4c3)CC21 (some centres unmarked) [I-76] |  | > 10 µM |
| COc1cc(C(=O)N2CC3CN(C(=O)Cc4c[nH]c5cc(Cl)ccc45)CC(C(=O)NCCCCc4ccccc4)C3C2)ccc1OC(C)C (centres unmarked) [I-119] |  | > 10 µM |
| CNC(=O)[C@H](CCCc1ccccc1)NC(=O)C1CN(C(=O)Cc2c[nH]c3cc(Cl)ccc23)CC2CN(C(=O)c3ccc(O)cc3)CC21 (some centres unmarked) [I-4] | > 10 µM |  |
| CNC(=O)[C@H](CCCc1ccccc1)NC(=O)C1CN(C(=O)Cc2c[nH]c3cc(Cl)ccc23)CC2CN(C(=O)c3ccc(OC)c(OC)c3)CC21 (some centres unmarked) [I-33] | 5 to 10 µM |  |
